# Results from patent US6472158B1, “Ustilipides, method for the production and the use thereof” (Aventis Pharma Deutschland GmbH, priority 1998, dated 2002).
# Columns and labels:
# Dopamine D3 receptor = molecular target: T1, Dopamine D3 receptor (Homo sapiens, UniProt P35462); experiment: Dopamine D3 receptor binding assay ([N-methyl-3H]spiroperidol, CHO membranes); settings: human D3 receptor in CHO membranes, room temperature, 60 minutes
# T1 construct: expressed in transfected cells
# Experimental: (§1) The ustilipides effectively antagonize dopamine D2 and D3 receptors. One measure of their activity is the IC50 which indicates the concentration of inhibitor at which the rate of the normal enzymatic reaction (or receptor antagonism) is reduced by 50%.
# (§2) The D3 and D2 long genes were isolated from a human cDNA library and stably transfected into CHO cells (CHO=Chinese hamster ovary). Membrane fractions are obtained from single clones with high-level expression. The binding assay is carried out in 96-well plates at room temperature for 60 minutes. The reaction mixture contains 50 μl of [N-methyl-^3H]spiroperidol, 50 μl of test substance or S(−)-eticlopride made for nonspecific binding and 100 μl of membrane. The assay is stopped by rapid filtration through a GF/B filter into a Skatron 96 cell harvester. The filters are cut up and placed in containers (T trays, Wallac), and the radioactivity is determined in a scintillation counter.
# (§3) The specific binding is defined as the difference between the total binding and the binding in the presence of 10 μM S(−)-eticlopride. The total binding corresponds approximately to 10% of the counts of the ligands employed in total.
# (§4) The inhibition of the binding by a test substance is calculated by correlation with the control reaction. Analysis of the data took place using the LIGAND software package of McPherson, Munson & Rodbard, Elsevier-BIOSOFT.
# [1] = molecular target: T2, Dopamine D2 receptor (D2 long) (Homo sapiens, UniProt P14416); experiment: Dopamine D2 receptor binding assay ([N-methyl-3H]spiroperidol, CHO membranes); settings: human D2 long receptor in CHO membranes, room temperature, 60 minutes
# T2 construct: expressed in transfected cells
# Experimental: as §1, §2, §3, §4
# human erythrocytes = experiment: In vitro hemolysis; type: cell-based
# Experimental: On use of the schizonellins, a fatal 100% hemolysis occurs at concentrations as low as 10 and 30 μg/ml respectively. Determination of the hemolytic effect of ustilipides A, B and C gave the following results, the hemolysis being measured by the percentage of ruptured cells.
# The hemolysis experiments were carried out with human erythrocytes.
# Venous blood freshly taken from humans, rhesus monkeys or beagle dogs is used to measure the hemolytic activity. The blood is collected in heparinized tubes and distributed in aliquots of 200 μl to 12 polyethylene tubes. One aliquot is mixed with 200 μl of distilled water and serves as 100% standard, and another is mixed with 200 μl of physiological saline (0.9% NaCl) (0% standard). 200 μl portions of substance dilutions in physiological saline to […] are distributed to the other tubes. All the tubes are cautiously agitated and then incubated at 37° C. for 3 hours. The 100% standard is then made up with 5 ml of distilled water, and the other tubes are each made up with 5 ml of physiological saline, and are centrifuged at 700 g for 5 minutes.
# The hemolysis is determined by measuring the absorption of the supernatant in a spectrophotometer at a wavelength of 540 nm. The absorption of the standard with complete hemolysis is set at 100%. The absorption of the test product dilutions and of the 0% standard are measured and stated as a percentage of the maximum inducible hemolysis.
# [2] = Physicochemical properties (solubility, stability); settings: for solubility: alcohols and other organic solvents
# Text: The physicochemical and spectroscopic properties of the ustilipides can be summarized as follows: […]
# [3] = neutral and weakly acidic medium
# T1 sequence (P35462 whole entry): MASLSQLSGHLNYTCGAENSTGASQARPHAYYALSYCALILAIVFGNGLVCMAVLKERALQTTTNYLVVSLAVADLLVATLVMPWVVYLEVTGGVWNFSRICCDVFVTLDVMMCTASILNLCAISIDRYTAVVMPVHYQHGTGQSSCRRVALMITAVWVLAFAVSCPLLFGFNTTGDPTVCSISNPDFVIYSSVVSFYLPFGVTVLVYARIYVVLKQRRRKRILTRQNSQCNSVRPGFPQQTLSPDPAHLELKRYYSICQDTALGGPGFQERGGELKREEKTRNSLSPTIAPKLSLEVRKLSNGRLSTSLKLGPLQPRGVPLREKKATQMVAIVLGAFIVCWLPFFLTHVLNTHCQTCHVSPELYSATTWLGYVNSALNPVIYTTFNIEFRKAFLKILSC
# T2 sequence (P14416 whole entry): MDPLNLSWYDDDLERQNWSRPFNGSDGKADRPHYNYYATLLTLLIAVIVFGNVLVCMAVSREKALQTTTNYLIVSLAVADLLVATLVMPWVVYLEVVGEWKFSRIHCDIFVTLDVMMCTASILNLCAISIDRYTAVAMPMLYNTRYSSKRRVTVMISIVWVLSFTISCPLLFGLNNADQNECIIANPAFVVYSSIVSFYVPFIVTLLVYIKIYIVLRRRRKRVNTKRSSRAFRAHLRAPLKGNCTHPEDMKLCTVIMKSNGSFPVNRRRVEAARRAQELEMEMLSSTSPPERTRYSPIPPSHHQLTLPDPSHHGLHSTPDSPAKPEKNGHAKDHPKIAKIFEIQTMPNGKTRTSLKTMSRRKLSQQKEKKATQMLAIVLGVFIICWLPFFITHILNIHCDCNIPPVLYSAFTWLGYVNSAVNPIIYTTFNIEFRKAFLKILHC
SMILES,IC50 (Dopamine D3 receptor),IC50 [1],hemolysis (percentage of ruptured cells) (human erythrocytes; 8 μg/ml),hemolysis (percentage of ruptured cells) (human erythrocytes; 16 μg/ml),hemolysis (percentage of ruptured cells) (human erythrocytes; 32 μg/ml),hemolysis (percentage of ruptured cells) (human erythrocytes; 62.5 μg/ml),hemolysis (percentage of ruptured cells) (human erythrocytes; 125 μg/ml),solubility [2],stability ([2]; alkaline solution),"stability [2, 3]"
CCCCCCCCCCCCCCCC(=O)O[C@@H]1[C@H](OC(=O)CCCCC)[C@H](OC[C@@H](O)[C@@H](O)CO)O[C@H](COC(C)=O)[C@H]1OC(C)=O [Ustilipide A],7.09 µM,42.6 µM,0.0%,0.0%,0.0%,0.0%,0.1%,Colorless oil which is soluble in alcohols and other,medium but unstable in alkaline solution.,organic solvents. Stable in neutral and weakly acidic
CCCCCCCCCCCCCCCC(=O)O[C@@H]1[C@H](OC(=O)C(C)C)[C@H](OC[C@@H](O)[C@@H](O)CO)O[C@H](CO)[C@H]1OC(C)=O [Ustilipide C],18.9 µM,14.2 µM,0.0%,0.4%,0.4%,0.5%,0.8%,Colorless oil which is soluble in alcohols and other,medium but unstable in alkaline solution.,organic solvents. Stable in neutral and weakly acidic
CCCCCCCCCCCCCCCC(=O)O[C@@H]1[C@H](OC(=O)CCC)[C@H](OC[C@@H](O)[C@@H](O)CO)O[C@H](COC(C)=O)[C@H]1OC(C)=O [Ustilipide B],10.3 µM,23.6 µM,0.0%,0.0%,0.0%,0.0%,0.4%,Colorless oil which is soluble in alcohols and other,medium but unstable in alkaline solution.,organic solvents. Stable in neutral and weakly acidic
